Tests used:
Type in all cases: cell-based
[1] = biological target: hTRPV4 (full-length; hTRPV4WT) (Homo sapiens, UniProt Q9HBA0, L584M); assay: calcium flux
[2] = biological target: hTRPV4 (full-length; hTRPV4WT) (Homo sapiens, UniProt Q9HBA0, N474A); assay: calcium flux
[3] = biological target: hTRPV4 (full-length; hTRPV4WT) (Homo sapiens, UniProt Q9HBA0, R594A); assay: calcium flux
[4] = biological target: hTRPV4 (full-length; hTRPV4WT) (Homo sapiens, UniProt Q9HBA0, Y556A); assay: calcium flux
[5] = biological target: hTRPV4 (full-length; hTRPV4WT) (Homo sapiens, UniProt Q9HBA0); assay: calcium flux
[6] = biological target: hTRPV4 (full-length; hTRPV4WT) (Homo sapiens, UniProt Q9HBA0, N474Q); assay: calcium flux
[7] = biological target: hTRPV4 (full-length; hTRPV4WT) (Homo sapiens, UniProt Q9HBA0, K535A); assay: calcium flux
[8] = biological target: hTRPV4 (full-length; hTRPV4WT) (Homo sapiens, UniProt Q9HBA0, S548V); assay: calcium flux
[9] = biological target: hTRPV4 (full-length; hTRPV4WT) (Homo sapiens, UniProt Q9HBA0, F549A); assay: calcium flux
[10] = biological target: hTRPV4 (full-length; hTRPV4WT) (Homo sapiens, UniProt Q9HBA0, Q550A); assay: calcium flux
[11] = biological target: truncated hTRPV4 (cryo-EM construct, residues 148-787 N651D) (Homo sapiens, UniProt Q9HBA0, N651D); assay: two-electrode voltage clamp, Xenopus oocytes
Sequence of truncated hTRPV4 (cryo-EM construct, residues 148-787 N651D) (Q9HBA0 148-787 N651D): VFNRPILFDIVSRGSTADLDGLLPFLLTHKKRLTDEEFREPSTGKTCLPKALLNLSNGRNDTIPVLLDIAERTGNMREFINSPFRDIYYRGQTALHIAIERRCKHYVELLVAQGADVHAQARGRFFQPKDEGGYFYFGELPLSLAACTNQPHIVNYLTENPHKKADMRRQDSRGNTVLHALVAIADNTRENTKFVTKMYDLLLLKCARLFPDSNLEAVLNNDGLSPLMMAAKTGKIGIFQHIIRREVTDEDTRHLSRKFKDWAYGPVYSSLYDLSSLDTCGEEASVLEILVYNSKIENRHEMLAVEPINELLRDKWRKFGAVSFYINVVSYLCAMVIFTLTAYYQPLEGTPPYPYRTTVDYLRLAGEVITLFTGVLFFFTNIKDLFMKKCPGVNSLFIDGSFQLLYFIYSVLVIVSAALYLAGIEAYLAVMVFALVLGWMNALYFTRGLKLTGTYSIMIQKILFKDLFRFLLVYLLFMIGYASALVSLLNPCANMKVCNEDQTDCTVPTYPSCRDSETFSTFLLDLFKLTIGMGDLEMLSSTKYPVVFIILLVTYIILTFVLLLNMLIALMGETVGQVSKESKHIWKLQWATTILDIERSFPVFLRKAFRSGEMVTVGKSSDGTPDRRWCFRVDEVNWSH

Sequence of hTRPV4 (full-length; hTRPV4WT) (Homo sapiens, UniProt Q9HBA0, K535A) (Q9HBA0 whole entry K535A): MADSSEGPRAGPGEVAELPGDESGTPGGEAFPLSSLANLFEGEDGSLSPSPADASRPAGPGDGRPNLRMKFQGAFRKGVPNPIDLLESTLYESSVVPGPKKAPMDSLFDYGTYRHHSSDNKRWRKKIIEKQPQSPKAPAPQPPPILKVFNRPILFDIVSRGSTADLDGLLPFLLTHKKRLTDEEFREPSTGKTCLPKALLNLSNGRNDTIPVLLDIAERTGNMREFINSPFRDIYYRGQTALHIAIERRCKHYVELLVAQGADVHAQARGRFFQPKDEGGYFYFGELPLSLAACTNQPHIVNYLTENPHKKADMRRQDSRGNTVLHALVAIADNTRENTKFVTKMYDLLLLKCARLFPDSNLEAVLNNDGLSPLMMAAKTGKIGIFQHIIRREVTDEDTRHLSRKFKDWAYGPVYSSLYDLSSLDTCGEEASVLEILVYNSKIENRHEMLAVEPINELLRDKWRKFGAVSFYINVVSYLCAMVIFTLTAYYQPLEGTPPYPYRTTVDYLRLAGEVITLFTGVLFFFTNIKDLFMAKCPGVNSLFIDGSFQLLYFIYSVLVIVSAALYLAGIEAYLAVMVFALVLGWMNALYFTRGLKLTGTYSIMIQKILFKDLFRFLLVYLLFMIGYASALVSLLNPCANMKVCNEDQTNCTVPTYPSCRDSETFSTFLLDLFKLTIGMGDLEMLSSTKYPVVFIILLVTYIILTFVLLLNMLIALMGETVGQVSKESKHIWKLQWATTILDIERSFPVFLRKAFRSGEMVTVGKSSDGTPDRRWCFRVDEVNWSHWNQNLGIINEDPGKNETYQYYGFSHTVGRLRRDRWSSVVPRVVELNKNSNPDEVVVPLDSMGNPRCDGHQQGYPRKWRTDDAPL
Sequence of hTRPV4 (full-length; hTRPV4WT) (Homo sapiens, UniProt Q9HBA0, R594A) (Q9HBA0 whole entry R594A): as the sequence (Q9HBA0 whole entry K535A) above, with A535K, R594A counted along it
Sequence of hTRPV4 (full-length; hTRPV4WT) (Homo sapiens, UniProt Q9HBA0, F549A) (Q9HBA0 whole entry F549A): as the sequence (Q9HBA0 whole entry K535A) above, with A535K, F549A counted along it
Sequence of hTRPV4 (full-length; hTRPV4WT) (Homo sapiens, UniProt Q9HBA0, N474A) (Q9HBA0 whole entry N474A): as the sequence (Q9HBA0 whole entry K535A) above, with N474A, A535K counted along it
Sequence of hTRPV4 (full-length; hTRPV4WT) (Homo sapiens, UniProt Q9HBA0, S548V) (Q9HBA0 whole entry S548V): as the sequence (Q9HBA0 whole entry K535A) above, with A535K, S548V counted along it
Sequence of hTRPV4 (full-length; hTRPV4WT) (Homo sapiens, UniProt Q9HBA0, Y556A) (Q9HBA0 whole entry Y556A): as the sequence (Q9HBA0 whole entry K535A) above, with A535K, Y556A counted along it
Sequence of hTRPV4 (full-length; hTRPV4WT) (Homo sapiens, UniProt Q9HBA0, L584M) (Q9HBA0 whole entry L584M): as the sequence (Q9HBA0 whole entry K535A) above, with A535K, L584M counted along it
Sequence of hTRPV4 (full-length; hTRPV4WT) (Homo sapiens, UniProt Q9HBA0) (Q9HBA0 whole entry): as the sequence (Q9HBA0 whole entry K535A) above, with A535K counted along it
Sequence of hTRPV4 (full-length; hTRPV4WT) (Homo sapiens, UniProt Q9HBA0, Q550A) (Q9HBA0 whole entry Q550A, the tested form may be a part): as the sequence (Q9HBA0 whole entry K535A) above, with A535K, Q550A counted along it
Sequence of hTRPV4 (full-length; hTRPV4WT) (Homo sapiens, UniProt Q9HBA0, N474Q) (Q9HBA0 whole entry N474Q): as the sequence (Q9HBA0 whole entry K535A) above, with N474Q, A535K counted along it

EC50 [1]: 0.004 ± 0.0017 µM
EC50 [2]: 0.54 ± 0.15 µM
EC50 [3]: > 25 µM
EC50 [4]: 0.0096 ± 0.0043 µM
EC50 [5]: 0.00121 ± 3.3e-05 µM
EC50 [6]: > 25 µM
EC50 [7]: 0.0074 ± 0.0029 µM
EC50 [8]: 0.11 ± 0.018 µM
EC50 [9]: 0.0098 ± 0.0041 µM
EC50 [10]: 0.027 ± 0.013 µM
EC50 [11]: 8.43 µM
Structure (SMILES): CC(C)C[C@H](NC(=O)c1cc2ccccc2s1)C(=O)N1CCN(C(=O)[C@H](CO)NS(=O)(=O)c2ccc(Cl)cc2Cl)CC1 [GSK1016790A]

— publication doi:10.1101/2020.10.13.334797v1 (biorxiv, 2020)
